From patent publication US7135466B2 (Kirin Beer Kabushiki Kaisha, priority 1999, dated 2006)

What was measured:
[1] = target: T1, c-kit (Homo sapiens, UniProt P10721); assay: Inhibitory activity against c-kit autophosphorylation (MO7e cells, h-SCF); format: cell-based; settings: MO7e cells, 50 ng/ml h-SCF; read-out: c-kit IC50
T1 construct: MO7e (human megakaryocytic leukemia cell line) which had been arrested for 20 hr; endogenous in cells; host or cells: MO7e human megakaryocytic leukemia cell line
T1 sequence (P10721 26-976): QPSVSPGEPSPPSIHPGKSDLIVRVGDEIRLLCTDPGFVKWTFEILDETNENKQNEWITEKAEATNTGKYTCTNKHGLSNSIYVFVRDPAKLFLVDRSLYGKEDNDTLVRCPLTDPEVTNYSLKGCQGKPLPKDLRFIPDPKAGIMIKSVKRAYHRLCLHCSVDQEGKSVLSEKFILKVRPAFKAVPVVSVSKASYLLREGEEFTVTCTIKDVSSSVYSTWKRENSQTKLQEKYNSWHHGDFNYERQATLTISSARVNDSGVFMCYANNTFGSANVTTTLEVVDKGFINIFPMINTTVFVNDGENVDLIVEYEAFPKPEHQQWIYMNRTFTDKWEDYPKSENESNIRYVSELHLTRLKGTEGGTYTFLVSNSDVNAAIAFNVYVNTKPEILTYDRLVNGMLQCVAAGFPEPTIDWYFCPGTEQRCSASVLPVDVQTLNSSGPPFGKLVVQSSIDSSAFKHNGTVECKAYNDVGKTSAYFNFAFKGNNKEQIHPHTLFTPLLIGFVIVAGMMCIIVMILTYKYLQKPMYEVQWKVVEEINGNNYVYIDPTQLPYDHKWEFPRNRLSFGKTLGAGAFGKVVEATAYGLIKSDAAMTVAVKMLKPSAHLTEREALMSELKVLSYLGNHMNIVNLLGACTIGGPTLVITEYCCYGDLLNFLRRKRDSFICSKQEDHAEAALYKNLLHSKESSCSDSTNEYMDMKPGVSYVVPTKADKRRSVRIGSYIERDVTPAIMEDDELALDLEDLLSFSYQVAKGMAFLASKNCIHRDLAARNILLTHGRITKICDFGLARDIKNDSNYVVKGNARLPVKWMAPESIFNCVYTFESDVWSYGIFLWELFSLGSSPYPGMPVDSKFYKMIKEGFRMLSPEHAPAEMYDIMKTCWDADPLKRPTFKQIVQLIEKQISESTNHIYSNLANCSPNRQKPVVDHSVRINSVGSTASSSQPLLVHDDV
Method in brief: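 Ligand-induced c-kit tyrosine phosphorylation is measured in MO7e cells that were quiesced 20 hr and preincubated with compound for 1 hr prior to a 5 min pulse of 50 ng/ml human SCF. Phospho-c-kit is detected by anti-phosphotyrosine capture ELISA, A450.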

[2] = target: T2, PDGF-Ra (Homo sapiens, UniProt P16234); assay: Inhibitory activity against PDGF-Ra phosphorylation by PDGF-AA stimulation using G292; format: cell-based; settings: for IC50: > means inhibition at indicated concentration not more than 50%, < and << not less than 50%, read-out: PDGF (E) IC50; for inhibition at 0.1 µM: G292, figure within parentheses in >100( ), at 100 nM, read-out: PDGF (E) inhibition (%) at 100 nM
T2 construct: host or cells: G-292 human osteosarcoma cells
T2 sequence (P16234 24-1089): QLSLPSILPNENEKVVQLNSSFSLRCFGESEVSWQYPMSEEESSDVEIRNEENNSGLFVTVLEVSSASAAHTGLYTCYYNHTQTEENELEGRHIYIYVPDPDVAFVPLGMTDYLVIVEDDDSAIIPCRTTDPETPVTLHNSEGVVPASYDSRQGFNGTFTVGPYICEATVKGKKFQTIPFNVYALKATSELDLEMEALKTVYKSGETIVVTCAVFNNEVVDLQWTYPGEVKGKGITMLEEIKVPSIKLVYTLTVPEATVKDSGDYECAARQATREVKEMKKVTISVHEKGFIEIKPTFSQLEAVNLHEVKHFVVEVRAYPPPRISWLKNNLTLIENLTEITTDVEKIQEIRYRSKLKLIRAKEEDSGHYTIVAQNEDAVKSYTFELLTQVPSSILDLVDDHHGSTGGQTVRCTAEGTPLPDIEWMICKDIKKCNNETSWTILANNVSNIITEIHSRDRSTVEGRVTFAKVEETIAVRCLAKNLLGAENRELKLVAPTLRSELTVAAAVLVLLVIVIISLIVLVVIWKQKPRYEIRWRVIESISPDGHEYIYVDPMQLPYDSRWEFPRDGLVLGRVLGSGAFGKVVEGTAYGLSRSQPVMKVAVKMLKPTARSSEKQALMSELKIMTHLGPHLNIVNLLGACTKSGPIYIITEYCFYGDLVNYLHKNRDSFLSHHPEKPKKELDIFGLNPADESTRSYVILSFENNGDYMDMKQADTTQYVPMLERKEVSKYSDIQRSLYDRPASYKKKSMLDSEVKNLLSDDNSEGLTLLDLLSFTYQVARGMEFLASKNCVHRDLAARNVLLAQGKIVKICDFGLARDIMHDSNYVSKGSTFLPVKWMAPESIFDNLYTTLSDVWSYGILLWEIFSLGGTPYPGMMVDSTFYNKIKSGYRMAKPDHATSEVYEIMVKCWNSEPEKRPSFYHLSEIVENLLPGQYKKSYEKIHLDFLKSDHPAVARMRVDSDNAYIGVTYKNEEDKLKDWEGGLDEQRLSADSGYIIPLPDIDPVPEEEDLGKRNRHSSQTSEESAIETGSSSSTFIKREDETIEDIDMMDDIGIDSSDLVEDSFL
Method in brief: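 Phosphorylated PDGF-Ra was measured colorimetrically (450 nm) after tyrosine-phosphorylated proteins from G-292 lysates were bound to PY-20-coated wells and detected with anti-PDGF-Ra antibody. Compound preincubation lasted 1 hr, followed by 50 ng/ml PDGF-AA for 5 min.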

SMILES | IC50 [1] | IC50 [2] | inhibition at 0.1 µM [2]
COc1cc2nccc(Oc3cc(C)c(NC(=O)OCCCN4CCOCC4)cc3C)c2cc1OC [Example 422, 3-Morpholinopropyl N-{4-[(6,7-dimethoxy-4-quinolyl)oxy]-2,5-dimethylphenyl}carbamate] | 119 nM | < 10 nM | –
COc1cc2nccc(Oc3ccc(NC(=O)OCCCN4CCN(C)CC4)cc3)c2cc1OC [Example 424, 3-(4-Methylpiperazino)propyl N-{4-[(6,7-dimethoxy-4-quinolyl)oxy]phenyl}carbamate] | 224 nM | 47 nM | –
CCN(CC)CCCOC(=O)Nc1ccc(Oc2ccnc3cc(OC)c(OC)cc23)cc1 [Example 426, 3-(Diethylamino)propyl N-{4-[(6,7-dimethoxy-4-quinolyl)oxy]phenyl}carbamate] | 272 nM | 22 nM | –
CCN(CC)CCCOC(=O)Nc1cc(C)c(Oc2ccnc3cc(OC)c(OC)cc23)cc1C [Example 427, 3-(Diethylamino)propyl N-{4-[(6,7-dimethoxy-4-quinolyl)oxy]-2,5-dimethylphenyl}carbamate] | 364 nM | > 100 nM | 13%
CCN(CC)CCCOC(=O)Nc1ccc(Oc2ccnc3cc(OC)c(OC)cc23)c(C)c1C [Example 428, 3-(Diethylamino)propyl N-{4-[(6,7-dimethoxy-4-quinolyl)oxy]-2,3-dimethylphenyl}carbamate] | 158 nM | 64 nM | –
CCN(CC)CCCOC(=O)Nc1ccc(Oc2ncnc3cc(OC)c(OC)cc23)cc1 [Example 429, 3-(Diethylamino)propyl N-{4-[(6,7-dimethoxy-4-quinazolinyl)oxy]phenyl}carbamate] | 603 nM | 54 nM | –
COc1cc2nccc(Oc3cc(C)c(NC(=O)OCc4ccccn4)cc3C)c2cc1OC [Example 430, 2-Pyridylmethyl N-{4-[(6,7-dimethoxy-4-quinolyl)oxy]-2,5-dimethylphenyl}carbamate] | 182 nM | 76 nM | –
COc1cc2nccc(Oc3ccc(NC(=O)OCc4ccccn4)c(C)c3C)c2cc1OC [Example 431, 2-Pyridylmethyl N-{4-[(6,7-dimethoxy-4-quinolyl)oxy]-2,3-dimethylphenyl}carbamate] | 43 nM | 17 nM | –
COc1cc2nccc(Oc3ccc(NC(=O)OCc4cccnc4)c(C)c3C)c2cc1OC [Example 432, 3-Pyridylmethyl N-{4-[(6,7-dimethoxy-4-quinolyl)oxy]-2,3-dimethylphenyl}carbamate] | < 30 nM | 13 nM | –

Further lines, results first:

IC50 [1] | IC50 [2] | inhibition at 0.1 µM [2] | SMILES
50 nM | 39 nM | – | CCCCCC(C)OC(=O)Nc1ccc(Oc2ccnc3cc(OC)c(OC)cc23)c(C)c1C (stereo not drawn) [Example 413, 1-Methylhexyl N-{4-[(6,7-dimethoxy-4-quinolyl)oxy]-2,3-dimethylphenyl}carbamate]
98 nM | 24 nM | – | COc1cc2nccc(Oc3ccc(NC(=O)OCCCN4CCCCC4)c(C)c3C)c2cc1OC [Example 415, 3-Piperidinopropyl N-{4-[(6,7-dimethoxy-4-quinolyl)oxy]-2,3-dimethylphenyl}carbamate]
401 nM | 26 nM | – | COc1cc2nccc(Oc3ccc(NC(=O)OCN4C(=O)c5ccccc5C4=O)c(C)c3C)c2cc1OC [Example 418, (1,3-Dioxo-2,3-dihydro-1H-2-isoindolyl)methyl N-{4-[(6,7-dimethoxy-4-quinolyl)oxy]-2,3-dimethylphenyl}carbamate]
77 nM | 16 nM | – | COc1cc2nccc(Oc3ccc(NC(=O)OCCN4C(=O)c5ccccc5C4=O)c(C)c3C)c2cc1OC [Example 420, 2-(1,3-Dioxo-2,3-dihydro-1H-2-isoindolyl)ethyl N-{4-[(6,7-dimethoxy-4-quinolyl)oxy]-2,3-dimethylphenyl}carbamate]
464 nM | > 100 nM | 5% | COc1cc2nccc(Oc3cc(C)c(NC(=O)OCCCN4CCN(C)CC4)cc3C)c2cc1OC [Example 425, 3-(4-Methylpiperazino)propyl N-{4-[(6,7-dimethoxy-4-quinolyl)oxy]-2,5-dimethylphenyl}carbamate]
